Measurements: the SangsterLogP compilation

Assay: method code SF-RC, from DOI: 10.1021/acs.jmedchem.5b00440, PMID: 26327138
Conditions: pH 7.4
With Ic1ccc2cc(/C=C/c3ccccc3)sc2c1 the logD was 2.34.
With CN(C)c1ccc(/C=C/c2nc3ccc(I)cc3s2)cn1 the logD was 3.25.
With Ic1ccc2nc(/C=C/c3ccccc3)[nH]c2c1 the logD was 3.25.
Work on Ic1ccc2cc(/C=C/c3ccccc3)oc2c1 yielded a logD of 2.38.
Ic1ccc2nc(/C=C/c3ccccc3)oc2c1 gave a logD of 3.95.
Work on CN(C)c1ccc(/C=C/c2cc3ccc(I)cc3s2)cn1 yielded a logD of 2.85.
CN(C)c1ccc(/C=C/c2cc3ccc(I)cc3o2)cc1 showed a logD of 2.11.
Molecule Ic1ccc2nc(/C=C/c3cccnc3)oc2c1 has a logD of 3.35.
Molecule Ic1ccc2cc(/C=C/c3cccnc3)sc2c1 has a logD of 2.95.
Work on CN(C)c1ccc(/C=C/c2nc3ccc(I)cc3s2)cc1 yielded a logD of 3.15.
CN(C)c1ccc(/C=C/c2nc3ccc(I)cc3[nH]2)cn1 gave a logD of 3.11.
In the case of CN(C)c1ccc(C=Cc2cc3ccc(I)cc3s2)cc1, the logD was 2.4.
For Ic1ccc2nc(/C=C/c3cccnc3)[nH]c2c1, the logD was 3.15.
Work on Ic1ccc2cc(/C=C/c3cccnc3)oc2c1 yielded a logD of 3.13.
